Assay results from PubChem BioAssay AID256 (DTP/NCI, 2004).
Inconclusive results and toxic doses are left out.

Test system: CD2F1 mice, L1210 leukemia ip, survival T/C
Assay: NCI In Vivo Anticancer Drug Screen. Data for tumor model L1210 Leukemia (intraperitoneal) in CD2F1 (CDF1) mice
Conditions: higher = longer survival
Procedure, shortened: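 Each value reflects a quotient of treated over vehicle control outcomes in mice with a transplanted tumor.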

[1] = endpoint: mean survival time, dose: 100.0 mg/kg/injection, schedule: Q01DX009 (ip), vehicle: saline with Tween-80
[2] = endpoint: mean survival time, dose: 100.0 mg/kg/injection, schedule: Q04DX003 (ip), vehicle: saline with Tween-80
[3] = endpoint: mean survival time, dose: 200.0 mg/kg/injection, schedule: Q01DX009 (ip), vehicle: saline with Tween-80
[4] = endpoint: mean survival time, dose: 200.0 mg/kg/injection, schedule: Q04DX003 (ip), vehicle: saline with Tween-80
[5] = endpoint: mean survival time, dose: 400.0 mg/kg/injection, schedule: Q04DX003 (ip), vehicle: saline with Tween-80
[6] = endpoint: mean survival time, dose: 100.0 mg/kg/injection, schedule: Q01DX001 (ip), vehicle: saline with Tween-80
[7] = endpoint: mean survival time, dose: 400.0 mg/kg/injection, schedule: Q01DX001 (ip), vehicle: saline with Tween-80
[8] = endpoint: mean survival time, dose: 25.0 mg/kg/injection, schedule: Q01DX009 (ip), vehicle: saline
[9] = endpoint: mean survival time, dose: 100.0 mg/kg/injection, schedule: Q01DX009 (ip), vehicle: saline
[10] = endpoint: mean survival time, dose: 400.0 mg/kg/injection, schedule: Q01DX009 (ip), vehicle: saline with Tween-80
[11] = endpoint: mean survival time, dose: 200.0 mg/kg/injection, schedule: Q01DX001 (ip), vehicle: saline with Tween-80
[12] = endpoint: mean survival time, dose: 100.0 mg/kg/injection, schedule: Q04DX002 (ip), vehicle: saline with Tween-80
[13] = endpoint: mean survival time, dose: 100.0 mg/kg/injection, schedule: Q04DX003 (ip), vehicle: saline

SMILES: COC(=O)C(C(=O)OC)C(Br)(C(=O)OC)C(=O)OC
- T/C [1]: 98 % of control
- T/C [2]: 91 % of control
- T/C [3]: 103 % of control
- T/C [4]: 91 % of control
- T/C [5]: 95 % of control

SMILES: CCCC(C)C1(CC)C(=O)NC(=O)NC1=O (stereo unspecified)
- T/C (endpoint: mean survival time, dose: 20.0 mg/kg/injection, schedule: Q01DX009 (ip), vehicle: saline): 95 % of control
- T/C (endpoint: mean survival time, dose: 40.0 mg/kg/injection, schedule: Q01DX009 (ip), vehicle: saline): 104 % of control

SMILES: O=C(CCO)CC(=O)CCc1ccccc1Cl
- T/C [2]: 97 % of control
- T/C [4]: 103 % of control
- T/C [5]: 91 % of control

SMILES: O=NN(CCSCCCCl)C(=O)NC1CCCCC1
- T/C (endpoint: mean survival time, dose: 6.25 mg/kg/injection, schedule: Q01DX001 (ip), vehicle: distilled water + Tween-80): 96 % of control
- T/C (endpoint: mean survival time, dose: 12.5 mg/kg/injection, schedule: Q01DX001 (ip), vehicle: distilled water + Tween-80): 96 % of control
- T/C (endpoint: mean survival time, dose: 25.0 mg/kg/injection, schedule: Q01DX001 (ip), vehicle: distilled water + Tween-80): 101 % of control
- T/C (endpoint: mean survival time, dose: 50.0 mg/kg/injection, schedule: Q01DX001 (ip), vehicle: distilled water + Tween-80): 102 % of control
- T/C (endpoint: mean survival time, dose: 100.0 mg/kg/injection, schedule: Q01DX001 (ip), vehicle: distilled water + Tween-80): 101 % of control
- T/C (endpoint: mean survival time, dose: 200.0 mg/kg/injection, schedule: Q01DX001 (ip), vehicle: distilled water + Tween-80): 102 % of control
- T/C (endpoint: mean survival time, dose: 400.0 mg/kg/injection, schedule: Q01DX001 (ip), vehicle: distilled water + Tween-80): 118 % of control

SMILES: CCCC(=O)Nc1cc2c3c(c1)CCCN3CCC2
- T/C (endpoint: mean survival time, dose: 6.25 mg/kg/injection, schedule: Q01DX009 (ip), vehicle: saline with Tween-80): 97 % of control
- T/C (endpoint: mean survival time, dose: 12.5 mg/kg/injection, schedule: Q01DX009 (ip), vehicle: saline with Tween-80): 97 % of control
- T/C (endpoint: mean survival time, dose: 25.0 mg/kg/injection, schedule: Q01DX009 (ip), vehicle: saline with Tween-80): 98 % of control

SMILES: Nc1nc(-c2cccc([N+](=O)[O-])c2)c(N=Nc2ccccc2[N+](=O)[O-])s1
- T/C [6]: 96 % of control
- T/C [7]: 98 % of control

SMILES: C[P+](c1ccc(Cl)cc1)(c1ccc(Cl)cc1)c1ccc(Cl)cc1
- T/C (endpoint: mean survival time, dose: 6.25 mg/kg/injection, schedule: Q01DX009 (ip), vehicle: saline): 119 % of control
- T/C (endpoint: mean survival time, dose: 12.5 mg/kg/injection, schedule: Q01DX009 (ip), vehicle: saline): 107 % of control
- T/C [8]: 109 % of control

SMILES: CN(N=O)P(=O)(Nc1ccccc1)Nc1ccccc1
- T/C (endpoint: mean survival time, dose: 25.0 mg/kg/injection, schedule: Q04DX003 (ip), vehicle: other): 101 % of control
- T/C (endpoint: mean survival time, dose: 50.0 mg/kg/injection, schedule: Q04DX003 (ip), vehicle: other): 98 % of control
- T/C (endpoint: mean survival time, dose: 100.0 mg/kg/injection, schedule: Q04DX003 (ip), vehicle: other): 103 % of control

SMILES: O=C(O)C1CC[N-]CC1.O=C(O)C1CC[N-]CC1.O=C(O)C1CC[N-]CC1.O=C(O)C1CC[N-]CC1.[Cl][Rh][Cl]
- T/C (endpoint: mean survival time, dose: 66.0 mg/kg/injection, schedule: Q01DX009 (ip), vehicle: saline): 112 % of control
- T/C [9]: 110 % of control

SMILES: CCCN(CCC)CC(=O)Nc1c(Cl)cccc1Cl
- T/C (endpoint: mean survival time, dose: 50.0 mg/kg/injection, schedule: Q01DX009 (ip), vehicle: saline sonified): 101 % of control
- T/C (endpoint: mean survival time, dose: 100.0 mg/kg/injection, schedule: Q01DX009 (ip), vehicle: saline sonified): 96 % of control
- T/C [2]: 105 % of control
- T/C [4]: 105 % of control

SMILES: COc1cccc2c1C(=O)c1c(O)c3c(c(O)c1C2=O)C[C@@](O)(C(=O)COC(=O)c1ccccc1)C[C@@H]3OC1CC(N)C(O)C(C)O1 (stereo partly specified)
- T/C (endpoint: mean survival time, dose: 0.5 mg/kg/injection, schedule: Q01DX009 (ip), vehicle: saline sonified): 122 % of control
- T/C (endpoint: mean survival time, dose: 1.3 mg/kg/injection, schedule: Q04DX003 (ip), vehicle: Klucel (hydroxypropylcellulose) (HPC)): 124 % of control

SMILES: O=[n+]1c2ccccc2n([O-])c2ccccc21.[Cl][Ni][Cl]
- T/C (endpoint: median survival time, dose: 1.56 mg/kg/injection, schedule: Q01DX009 (ip), vehicle: saline with Tween-80): 98 % of control
- T/C (endpoint: median survival time, dose: 3.12 mg/kg/injection, schedule: Q01DX009 (ip), vehicle: saline with Tween-80): 92 % of control
- T/C (endpoint: median survival time, dose: 6.25 mg/kg/injection, schedule: Q01DX009 (ip), vehicle: saline with Tween-80): 103 % of control
- T/C (endpoint: median survival time, dose: 12.5 mg/kg/injection, schedule: Q01DX009 (ip), vehicle: saline with Tween-80): 109 % of control
- T/C (endpoint: median survival time, dose: 25.0 mg/kg/injection, schedule: Q01DX009 (ip), vehicle: saline with Tween-80): 113 % of control

SMILES: COC(=O)C(Cl)c1ccccc1 (stereo unspecified)
- T/C [1]: 95 % of control
- T/C [3]: 100 % of control
- T/C [10]: 97 % of control

SMILES: CC(C)(C)c1cc(Cc2cc(C(C)(C)C)c(O)c(C(C)(C)C)c2)cc(C(C)(C)C)c1O
- T/C [6]: 91 % of control
- T/C [11]: 91 % of control
- T/C [7]: 103 % of control

SMILES: OC(Cc1ccccn1)c1ccccc1 (stereo unspecified)
- T/C [2]: 95 % of control
- T/C [4]: 101 % of control
- T/C [5]: 98 % of control

SMILES: c1ccc2c(c1)Sc1ccccc1N2CCCNC1=NCCO1
- T/C (endpoint: mean survival time, dose: 25.0 mg/kg/injection, schedule: Q04DX002 (ip), vehicle: saline with Tween-80): 97 % of control
- T/C (endpoint: mean survival time, dose: 50.0 mg/kg/injection, schedule: Q04DX002 (ip), vehicle: saline with Tween-80): 94 % of control
- T/C [6]: 89 % of control
- T/C [12]: 94 % of control

SMILES: CC(C)=CCCC(C)CCN(C)C (stereo unspecified)
- T/C [8]: 94 % of control
- T/C (endpoint: mean survival time, dose: 50.0 mg/kg/injection, schedule: Q01DX009 (ip), vehicle: saline): 94 % of control
- T/C [9]: 93 % of control
- T/C [13]: 93 % of control

SMILES: Cc1ccc(C2(C(=O)O)CC2)cc1
- T/C [2]: 98 % of control
- T/C [4]: 98 % of control
- T/C [5]: 96 % of control

SMILES: CC(=O)OC1C(NC(=O)N(CCCl)N=O)C(OC(C)=O)C(OC(C)=O)C(NC(=O)N(CCCl)N=O)C1OC(C)=O (stereo unspecified)
- T/C (endpoint: mean survival time, dose: 20.0 mg/kg/injection, schedule: Q01DX001 (ip), vehicle: saline with Tween-80): 124 % of control
- T/C (endpoint: mean survival time, dose: 60.0 mg/kg/injection, schedule: Q01DX001 (ip), vehicle: saline with Tween-80): 164 % of control
- T/C (endpoint: mean survival time, dose: 90.0 mg/kg/injection, schedule: Q01DX001 (ip), vehicle: saline with Tween-80): 160 % of control
- T/C (endpoint: mean survival time, dose: 130.0 mg/kg/injection, schedule: Q01DX001 (ip), vehicle: saline with Tween-80): 174 % of control
- T/C [11]: 168 % of control
- T/C (endpoint: mean survival time, dose: 300.0 mg/kg/injection, schedule: Q01DX001 (ip), vehicle: saline with Tween-80): 218 % of control

SMILES: CCC(=O)c1ccc2c(c1)N(C(C)CN(C)C)c1ccccc1S2 (stereo unspecified)
- T/C (endpoint: mean survival time, dose: 25.0 mg/kg/injection, schedule: Q04DX003 (ip), vehicle: saline): 97 % of control
- T/C (endpoint: mean survival time, dose: 50.0 mg/kg/injection, schedule: Q04DX003 (ip), vehicle: saline): 97 % of control
- T/C [13]: 101 % of control

SMILES: NP(=O)(OCCCCOCc1ccccc1)N(CCCl)CCCl (stereo unspecified)
- T/C (endpoint: mean survival time, dose: 25.0 mg/kg/injection, schedule: Q01DX001 (ip), vehicle: other): 98 % of control
- T/C (endpoint: mean survival time, dose: 50.0 mg/kg/injection, schedule: Q01DX001 (ip), vehicle: other): 101 % of control
- T/C (endpoint: mean survival time, dose: 100.0 mg/kg/injection, schedule: Q01DX001 (ip), vehicle: other): 101 % of control
- T/C (endpoint: mean survival time, dose: 200.0 mg/kg/injection, schedule: Q01DX001 (ip), vehicle: other): 90 % of control
- T/C (endpoint: mean survival time, dose: 400.0 mg/kg/injection, schedule: Q01DX001 (ip), vehicle: other): 95 % of control

SMILES: CC(=O)Nc1onc(C)c1NC(C)=O
- T/C [1]: 95 % of control
- T/C [3]: 101 % of control
- T/C [10]: 95 % of control

SMILES: CN1CCCC1CCNc1nc(-c2ccc(C(Cl)(Cl)Cl)cc2)nc(C(Cl)(Cl)Cl)n1 (stereo unspecified)
- T/C [6]: 95 % of control
- T/C [1]: 95 % of control
- T/C [11]: 95 % of control
- T/C [7]: 94 % of control

SMILES: Cc1onc(-c2ccccc2)c1C(=O)O
- T/C [2]: 101 % of control
- T/C [4]: 93 % of control
- T/C [5]: 89 % of control

SMILES: N#CC(O)Cc1ccccc1 (stereo unspecified)
- T/C (endpoint: mean survival time, dose: 5.0 mg/kg/injection, schedule: Q04DX003 (ip), vehicle: saline): 98 % of control
- T/C (endpoint: mean survival time, dose: 10.0 mg/kg/injection, schedule: Q04DX003 (ip), vehicle: saline): 98 % of control

SMILES: CCOC(=O)CC/C=C/Cc1c(OC)c(C)c2c(c1OC(=O)NCc1ccc(N(CC)CC)cc1)C(=O)OC2
- T/C [12]: 112 % of control

SMILES: Nc1ccc(Nc2ccc([N+](=O)[O-])cc2[N+](=O)[O-])cc1
- T/C [6]: 89 % of control
- T/C [11]: 96 % of control
- T/C [7]: 96 % of control
